The target of test [1] is T1, WT SecR (Homo sapiens, UniProt P47872).
T1 construct: expressed in transfected cells; membranes isolated from CHO-SecR cells
Description: KI collisional fluorescence quenching of receptor-bound probes, WT SecR. Particulars: KI quencher, mean ± S.E.M., n = 3. The protocol:
(§1) Incubations were terminated by separating receptor-bound ligand from free ligand using centrifugation at 25,000 × g for 10 min at 4 °C. The sample pellet was washed again with ice-cold KRH medium and resuspended in KRH medium for fluorescence measurements. The samples were excited at 481 nm and the emission was collected at 521 nm, with a bandwidth of 5 nm at an integration rate of 0.5 nm/s, and fluorescence intensities were collected by constant wavelength single point analysis using SPEX Fluoromax 3 (Horiba Scientific, Piscataway, NJ) with Origin version 8.1.
(§2) Fluorescence collisional quenching studies were performed using the hydrophilic quenching reagent, potassium iodide (KI), as described previously. Fluorescence intensities of receptor-bound probes were collected by exciting samples at 481 nm using Fluoromax-3 spectrofluorometer single point measurement by Origin version 8.1. […] The effect of ionic strength was determined by measuring fluorescence intensities in potassium chloride. […] The Stern–Volmer quenching constant, KSV, was calculated from the slope of Fo/F as a function of the quencher concentration [I^−].

Test [2] addresses T2, SecR(G264A,I268A) (Homo sapiens, UniProt P47872, G264A/I268A).
T2 construct: expressed in transfected cells; membranes isolated from these cells
As to the kind of experiment: Fluorescence anisotropy of receptor-bound probes, mutant SecR. The settings on record: membranes, 50 nM probe, mean ± S.E.M., n = 3. The protocol:
as §1

Test [3] deals with T2, SecR(G264A,I268A). Description: KI collisional fluorescence quenching of receptor-bound probes, mutant SecR. The settings on record: KI quencher, mean ± S.E.M., n = 3. On the procedure:
as §1, §2

Test [4] has as its target T1, WT SecR. Description: Fluorescence anisotropy of receptor-bound probes, WT SecR. Particulars: for Anisotropy: SecR WT, membranes, 50 nM probe, mean ± S.E.M., n = 3; for anisotropy, + GppNHp vs control, in words: WT SecR, 20 and 37 °C. The protocol: as §1
In test [5] the target is Cys7-[Tyr10]secretin(1-27) agonist probe. Description: cysteine trapping, autoradiograph densitometry. Particulars: intact COS-1 cells, non-reducing 10% SDS-PAGE, n = 3, read off a plot.
In test [6] the target is Cys6-[Tyr10]secretin(1-27) agonist probe. As to the kind of experiment: cysteine trapping, autoradiograph densitometry. The settings on record: intact COS-1 cells, non-reducing 10% SDS-PAGE, n = 5, read off a plot.
Test [7] deals with Cys2-[Tyr10]secretin(1-27) agonist probe. Description: cysteine trapping, autoradiograph densitometry. Particulars: ECL2 series; intact COS-1 cells; non-reducing 10% SDS-PAGE; n = 4; read off a plot.
Setting [8] is: +GppNHp (uncoupled state, 10 µM).
Setting [9] is: -GppNHp (active state), 50 nM probe, ex 481/em 521 nm.
The mark [10] stands for this setting: control, 20 °C, KRH pH 7.4, ex 481 nm.
Where [11] appears, read: control, 37 °C, KRH pH 7.4, ex 481 nm.

T2 sequence (P47872 23-440 G264A/I268A): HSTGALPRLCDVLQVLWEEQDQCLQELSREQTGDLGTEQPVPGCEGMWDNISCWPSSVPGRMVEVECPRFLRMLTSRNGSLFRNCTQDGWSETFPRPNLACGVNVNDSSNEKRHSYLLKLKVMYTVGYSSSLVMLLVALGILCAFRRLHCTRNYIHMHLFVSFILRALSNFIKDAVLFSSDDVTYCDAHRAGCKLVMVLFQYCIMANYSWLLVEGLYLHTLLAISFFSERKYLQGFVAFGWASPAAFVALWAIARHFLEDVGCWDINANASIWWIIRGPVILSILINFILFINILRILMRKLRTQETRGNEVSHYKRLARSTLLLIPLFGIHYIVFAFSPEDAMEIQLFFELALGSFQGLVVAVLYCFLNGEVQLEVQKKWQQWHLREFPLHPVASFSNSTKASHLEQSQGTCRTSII
T1 sequence (P47872 23-440): as the sequence (P47872 23-440 G264A/I268A) above, with A242G, A246I counted along it

`CC(C)C[C@H](NC(=O)CNC(=O)[C@H](CCC(N)=O)NC(=O)[C@H](CC(C)C)NC(=O)[C@H](CC(C)C)NC(=O)[C@H](CCCNC(=N)N)NC(=O)[C@H](CCC(N)=O)NC(=O)[C@H](CC(C)C)NC(=O)[C@H](CCCNC(=N)N)NC(=O)[C@H](C)NC(=O)CNC(=O)[C@H](CCC(=O)O)NC(=O)[C@H](CCCNC(=N)N)NC(=O)[C@H](CCCCNC(=O)c1ccc(-c2c3ccc(=N)c(S(=O)(=O)O)c-3oc3c(S(=O)(=O)O)c(N)ccc23)c(C(=O)O)c1)NC(=O)[C@H](CCCNC(=N)N)NC(=O)[C@H](CO)NC(=O)[C@H](CC(C)C)NC(=O)[C@H](CCC(=O)O)NC(=O)[C@H](CO)NC(=O)[C@@H](NC(=O)[C@H](Cc1ccccc1)NC(=O)[C@@H](NC(=O)CNC(=O)[C@H](CC(=O)O)NC(=O)[C@H](CO)NC(=O)[C@@H](N)Cc1c[nH]cn1)[C@@H](C)O)[C@@H](C)O)C(=O)N[C@H](C(N)=O)C(C)C` [(Lys^13-Alexa^488)Sec]: the “Stern-Volmer quenching constant (Ksv)” value on WT SecR [1] (setting [8]) is 3.9±02; at WT SecR [1] (setting [9]) it was 7.9±0.6; on SecR(G264A,I268A) [3] (setting [8]), 4.5±0.9; on SecR(G264A,I268A) [3] (-GppNHp (active state)), 5.2±0.4. Besides, the Anisotropy on SecR(G264A,I268A) [2] (+GppNHp (10 µM), 20 °C) stood at 0.20 ± 0.01; on SecR(G264A,I268A) [2] (+GppNHp (10 µM), 37 °C) it was 0.11 ± 0.01; at SecR(G264A,I268A) [2] (control, 20 °C), 0.18 ± 0.02; on SecR(G264A,I268A) [2] (control, 37 °C) it was 0.11 ± 0.01; at WT SecR [4] (+GppNHp (10 µM), 20 °C), 0.20 ± 0.02; on WT SecR [4] (+GppNHp (10 µM), 37 °C) it was 0.12 ± 0.01. Further, the Anisotropy amounted to 0.14 ± 0.01 on WT SecR [4] (setting [10]) and 0.06 ± 0.01 on WT SecR [4] (setting [11]). The “anisotropy, + GppNHp vs control, in words” value on WT SecR [4] is reported as “higher anisotropy after treatment with GppNHp than the control state”.
For the compound `CC(C)C[C@H](NC(=O)CNC(=O)[C@H](CCC(N)=O)NC(=O)[C@H](CC(C)C)NC(=O)[C@H](CCCCNC(=O)c1ccc(-c2c3ccc(=N)c(S(=O)(=O)O)c-3oc3c(S(=O)(=O)O)c(N)ccc23)c(C(=O)O)c1)NC(=O)[C@H](CCCNC(=N)N)NC(=O)[C@H](CCC(N)=O)NC(=O)[C@H](CC(C)C)NC(=O)[C@H](CCCNC(=N)N)NC(=O)[C@H](C)NC(=O)CNC(=O)[C@H](CCC(=O)O)NC(=O)[C@H](CCCNC(=N)N)NC(=O)[C@H](CC(C)C)NC(=O)[C@H](CCCNC(=N)N)NC(=O)[C@H](CO)NC(=O)[C@H](CC(C)C)NC(=O)[C@H](CCC(=O)O)NC(=O)[C@H](CO)NC(=O)[C@@H](NC(=O)[C@H](Cc1ccccc1)NC(=O)[C@@H](NC(=O)CNC(=O)[C@H](CC(=O)O)NC(=O)[C@H](CO)NC(=O)[C@@H](N)Cc1c[nH]cn1)[C@@H](C)O)[C@@H](C)O)C(=O)N[C@H](C(N)=O)C(C)C` [(Lys^22-Alexa^488)Sec], the “Stern-Volmer quenching constant (Ksv)” value on WT SecR [1] (setting [8]) was 4.5±0.2; on WT SecR [1] (setting [9]), 8.9±1.0; on SecR(G264A,I268A) [3] (setting [8]) it was 4.3±0.2; at SecR(G264A,I268A) [3] (-GppNHp (active state)), 6.1±0.3. The Anisotropy worked out at 0.19 ± 0.01 at SecR(G264A,I268A) [2] (+GppNHp (10 µM), 20 °C); 0.12 ± 0.01 on SecR(G264A,I268A) [2] (+GppNHp (10 µM), 37 °C); 0.18 ± 0.01 on SecR(G264A,I268A) [2] (control, 20 °C); 0.10 ± 0.01 at SecR(G264A,I268A) [2] (control, 37 °C); 0.20 ± 0.02 at WT SecR [4] (+GppNHp (10 µM), 20 °C); 0.12 ± 0.01 at WT SecR [4] (+GppNHp (10 µM), 37 °C). Also, the results for the Anisotropy on WT SecR [4] (setting [10]) and at WT SecR [4] (setting [11]) were 0.14 ± 0.01 and 0.06 ± 0.01, respectively. Further, the “anisotropy, + GppNHp vs control, in words” value at WT SecR [4] is on record as “higher anisotropy after treatment with GppNHp than the control state”.
Take `CC(C)C[C@H](NC(=O)CNC(=O)[C@H](CCC(N)=O)NC(=O)[C@H](CC(C)C)NC(=O)[C@H](CC(C)C)NC(=O)[C@H](CCCNC(=N)N)NC(=O)[C@H](CCC(N)=O)NC(=O)[C@H](CC(C)C)NC(=O)[C@H](CCCNC(=N)N)NC(=O)[C@H](C)NC(=O)CNC(=O)[C@H](CCC(=O)O)NC(=O)[C@H](CCCNC(=N)N)NC(=O)[C@H](CC(C)C)NC(=O)[C@H](CCCNC(=N)N)NC(=O)[C@H](CO)NC(=O)[C@H](CC(C)C)NC(=O)[C@H](CCC(=O)O)NC(=O)[C@H](CO)NC(=O)[C@@H](NC(=O)[C@H](Cc1ccccc1)NC(=O)[C@@H](NC(=O)CNC(=O)[C@H](CC(=O)O)NC(=O)[C@H](CO)NC(=O)[C@@H](N)Cc1c[nH]cn1)[C@@H](C)O)[C@@H](C)O)C(=O)N[C@H](C(=O)NCC(=O)N[C@@H](CSC1CC(=O)N(CCCCCNC(=O)c2ccc(-c3c4ccc(=N)c(S(=O)(=O)O)c-4oc4c(S(=O)(=O)O)c(N)ccc34)c(C(=O)O)c2)C1=O)C(N)=O)C(C)C` (stereo partly drawn) [Sec-Gly^28-(Cys^29-Alexa^488)]: the “Stern-Volmer quenching constant (Ksv)” value at WT SecR [1] (setting [8]) is on record as 4.9±0.4; on WT SecR [1] (setting [9]) it was 6.2±0.7; on SecR(G264A,I268A) [3] (setting [8]) it was 4.2±0.8; on SecR(G264A,I268A) [3] (-GppNHp (active state)), 5.6±1.1. Moreover, the Anisotropy amounted to 0.15 ± 0.01 on SecR(G264A,I268A) [2] (+GppNHp (10 µM), 20 °C); 0.1 ± 0.01 at SecR(G264A,I268A) [2] (+GppNHp (10 µM), 37 °C); 0.13 ± 0.01 on SecR(G264A,I268A) [2] (control, 20 °C); 0.09 ± 0.01 at SecR(G264A,I268A) [2] (control, 37 °C); 0.13 ± 0.01 at WT SecR [4] (+GppNHp (10 µM), 20 °C); 0.08 ± 0.01 at WT SecR [4] (+GppNHp (10 µM), 37 °C). Moreover, the Anisotropy on WT SecR [4] (setting [10]) is 0.13 ± 0.01; on WT SecR [4] (setting [11]), 0.08 ± 0.01.
Regarding “human wild type secretin receptor (SecR WT) (from UniProt P47872) G264A; I268A; A359C”, the other: receptor labeling (% of maximum signal) (% of maximum signal) in test [5] (ECL3 series) came out at 85.
“human wild type secretin receptor (SecR WT) (from UniProt P47872) G264A; I268A; I288C” returned an other: receptor labeling (% of maximum signal) (% of maximum signal) in test [5] (ECL2 series) of 68.
On to “human wild type secretin receptor (SecR WT) (from UniProt P47872) G264A; I268A; L374C”, for which the other: receptor labeling (% of maximum signal) (% of maximum signal) worked out at 77 in test [6] (ECL3 series) and 88 in test [5] (ECL3 series).
Regarding “human wild type secretin receptor (SecR WT) (from UniProt P47872) G264A; I268A; W295C”, the other: receptor labeling (% of maximum signal) (% of maximum signal) in test [7] amounted to 93; in test [5] (ECL2 series), 83.
As for “human wild type secretin receptor (SecR WT) (from UniProt P47872) G264A; I268A; W296C”, the other: receptor labeling (% of maximum signal) (% of maximum signal) in test [6] (ECL2 series) stood at 68.

For the origin of these results see article PMC11116414, “Impact of secretin receptor homo-dimerization on natural ligand binding” (Nature Communications, 2024).
